Results taken from US20130096160A1, “ARYLTHIAZOLYL PIPERIDINES AND RELATED COMPOUNDS AS MODULATORS OF SURVIVAL MOTOR NEURON (SMN) PROTEIN PRODUCTION” (Secretary, Department of Health and Human Services, priority 2010, published 2013).

Tests used:
human SMN protein = test: Western blot of SMN protein in SMA patient fibroblasts (3813); assay type: cell-based; details: SMA patient cells (3813), 0.1-10 μM, FIG. 2
Method: Type I spinal muscular atrophy (SMA)-affected human primary fibroblasts (#GM03813) and carrier parents (#GM03814, parent and #GM03815, […]) are obtained live with low passage number from Coriell Cell Repositories. […] For detection of SMN protein in patient fibroblasts, 8,000 cells per cm^2 are plated 24 hours prior to drug addition. Fresh media and compound are added every 24 hours. After 72 hours, cells are harvested, washed with cold PBS, and lysed. Samples are subjected to polyacrylamide gel electrophoresis (PAGE). It is determined that 10 μg total protein per lane is within the linear range for immunoblot detection of SMN and alpha-tubulin. Western blots of the gel are probed for SMN with the 4B7 mouse monoclonal antibody (from the lab of Christian Lorson). A goat anti-mouse antibody (Santa Cruz Biotechnology/#sc-2005) conjugated to horseradish peroxidase (HRP) is used as the secondary antibody. Quantification of protein is performed by detecting chemiluminescence with a Fujifilm LAS-4000 Multifunctional Imaging System. […] We incubated a fibroblast cell line from a type I SMA patient (3813 cell line) with different doses of analogues and assessed the SMN protein level by quantitative western blotting (FIG. 4). We observed that analogue 8 m at concentration of 37 nanomolar increased the SMN protein level by 2-3 fold. […] This could be due with the intrinsic mechanism of action or to other causes, such us concentration dependent compound solubility.

SMN2-luciferase reporter = SMN2-luciferase reporter qHTS assay; assay type: cell-based, human; details: SMN2-luc reporter, FIG. 1
Procedure, shortened: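 SMN2 exon-7 splicing firefly-luciferase reporter cell line, ~2000 cells/well in phenol-red-free DMEM with 10% serum, allowed to adhere 10–12 h, then exposed to compounds for 2 days at 37 C, 5% CO2. Seven-point five-fold dilution series (e.g. 50 μM to 3.2 nM), OneGlo luminescence read, curves fitted to Hill equation.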

SMN1-luciferase reporter = SMN1-luciferase reporter control cell line; assay type: cell-based, human; details: SMN1-luc reporter, FIG. 1
From the text: A cell-based quantitative high throughput screening (qHTS) assay is used to identify compounds able to increase SMN production. The assay uses a SMN2-luciferase reporter to determine if exon 7 of the SMN gene is expressed, which correlates with increased full-length SMN production from the SMN2 gene. As controls, a homologue SMN1-luciferase reporter cell line looks for variations in expression of the SMN1 gene and a cell line with just the luciferase reporter looks at the capacity of the compounds to inhibit luciferase. In addition, increments in SMN production by lead compounds were confirmed by Western-Blot analysis using SMA patient fibroblasts.
The SMN reporters used herein are modified from those previously described (M. L. Zhang, C. L. Lorson, E. J. Androphy and J. Zhou, An in vivo reporter system for measuring increased inclusion of exon 7 in SMN2 mRNA: potential therapy of SMA, Gene Ther 8 (2001), pp. 1532-1538.)
The sequence of the SMN1 reporter vector used herein is given in SEQ ID NO.:1, while that of the SMN2 reporter vector is given in SEQ ID NO.:2. […]

Question: Which “SMN protein by Western blot (in words)” value (human SMN protein) does the source give for `COc1nc(-c2ccccc2)nnc1-c1ccccc1` [MLS000763654] here?
Answer: Its value is “concentration-dependent increase in SMN protein”.

Question: And the “expression of SMN2 / levels of the full length SMN2 gene (in words)” value (SMN2-luciferase reporter)?
Answer: Its value is “increases the expression of SMN2”.

Question: What about the “expression of SMN1 (in words)” value (SMN1-luciferase reporter) of the same compound?
Answer: Its value is “reduces the expression of SMN1”.
